In patent US20050234046A1 (Kalypsys, Inc., priority 2004, published 2005):

Assays:
Assay in all cases: Transient transfection (transactivation) assay in CV-1 cells, GAL4-PPAR chimera, luciferase reporter
Assay type in all cases: cell-based
PPAR alpha = molecular target: T1, PPAR alpha (Homo sapiens, UniProt Q07869)
T1 construct: expressed in transfected cells; host or cells: CV-1 cells
T1 sequence (Q07869 239-466 limits assumed): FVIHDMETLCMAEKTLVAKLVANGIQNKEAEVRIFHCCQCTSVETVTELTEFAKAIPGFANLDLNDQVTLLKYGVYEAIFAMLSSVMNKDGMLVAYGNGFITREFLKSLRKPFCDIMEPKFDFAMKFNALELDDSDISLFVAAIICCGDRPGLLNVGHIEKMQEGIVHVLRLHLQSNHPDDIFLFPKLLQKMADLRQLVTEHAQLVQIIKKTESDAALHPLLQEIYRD
How it was run: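 GAL4 DNA-binding domain fused to PPAR ligand binding domain, co-transfected into CV-1 cells with a luciferase reporter carrying four or five GAL4 sites. Replated cells in phenol-red free DME with 5% delipidated calf serum were treated with compound or 1% DMSO for 20-24 hours; luciferase read for EC50 and efficacy.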

PPAR delta = molecular target: T2, PPAR delta (Homo sapiens, UniProt Q03181)
T2 construct: expressed in transfected cells; host or cells: CV-1 cells
T2 sequence (Q03181 211-439 limits assumed): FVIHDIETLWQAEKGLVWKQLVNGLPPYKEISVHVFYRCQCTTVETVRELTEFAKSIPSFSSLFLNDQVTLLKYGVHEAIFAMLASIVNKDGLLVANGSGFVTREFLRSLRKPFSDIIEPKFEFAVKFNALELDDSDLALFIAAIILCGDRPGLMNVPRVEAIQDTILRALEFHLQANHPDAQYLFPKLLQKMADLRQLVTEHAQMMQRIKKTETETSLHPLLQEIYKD

PPAR gamma = molecular target: T3, PPAR gamma (Homo sapiens, UniProt P37231)
T3 construct: expressed in transfected cells; host or cells: CV-1 cells
T3 sequence (P37231 238-503 limits assumed): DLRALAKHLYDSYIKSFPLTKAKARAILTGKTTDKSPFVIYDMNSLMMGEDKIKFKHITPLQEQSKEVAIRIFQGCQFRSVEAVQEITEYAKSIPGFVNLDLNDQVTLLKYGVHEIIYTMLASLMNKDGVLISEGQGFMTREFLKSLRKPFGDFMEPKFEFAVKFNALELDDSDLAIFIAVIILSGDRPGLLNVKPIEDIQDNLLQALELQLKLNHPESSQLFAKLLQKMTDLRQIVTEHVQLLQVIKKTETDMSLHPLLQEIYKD

Row | SMILES | EC50 (PPAR alpha) [µM] | EC50 (PPAR delta) [µM] | EC50 (PPAR gamma) [µM]
1 | O=C(O)Cc1cccc(S(=O)(=O)N2CCN(c3ccccc3F)CC2)c1 [Example 141, {3-[4-(2-Fluoro-phenyl)-piperazine-1-sulfonyl]-phenyl}-acetic acid] | > 100 | 5 to 100 | > 100
2 | CCOc1ccccc1N1CCN(S(=O)(=O)c2cccc(CC(=O)O)c2)CC1 [Example 142, {3-[4-(2-Ethoxy-phenyl)-piperazine-1-sulfonyl]-phenyl}-acetic acid] | > 100 | > 100 | > 100
3 | O=C(O)Cc1cccc(S(=O)(=O)N2CCN(C/C=C/c3ccccc3)CC2)c1 [Example 143, {3-[4-(3-Phenyl-allyl)-piperazine-1-sulfonyl]-phenyl}-acetic acid] | 5 to 100 | 5 to 100 | > 100
4 | O=C(O)Cc1cccc(S(=O)(=O)N2CCN(c3ccc(F)cc3)CC2)c1 [Example 144, {3-[4-(4-Fluoro-phenyl)-piperazine-1-sulfonyl]-phenyl}-acetic acid] | > 100 | 5 to 100 | 5 to 100
5 | O=C(O)Cc1cccc(S(=O)(=O)N2CCN(c3ccccc3)CC2)c1 [Example 145, [3-(4-Phenyl-piperazine-1-sulfonyl)-phenyl]-acetic acid] | > 100 | 5 to 100 | > 100
6 | O=C(O)Cc1cccc(S(=O)(=O)N2CCN(C(c3ccccc3)c3ccccc3)CC2)c1 [Example 146, [3-(4-Benzhydryl-piperazine-1-sulfonyl)-phenyl]-acetic acid] | > 100 | > 100 | 5 to 100
7 | Cc1cccc(N2CCN(S(=O)(=O)c3cc(CC(=O)O)ccc3C)CC2C)c1 (stereo not drawn) [Example 149, [4-Methyl-3-(3-methyl-4-m-tolyl-piperazine-1-sulfonyl)-phenyl]-acetic acid] | > 100 | > 100 | 5 to 100
8 | Cc1ccc(CC(=O)O)cc1S(=O)(=O)N1CCN(CCc2ccccc2)CC1 [Example 152, [4-Methyl-3-(4-phenethyl-piperazine-1-sulfonyl)-phenyl]-acetic acid] | > 100 | > 100 | 5 to 100
9 | Cc1ccc(CC(=O)O)cc1S(=O)(=O)N1CCN(c2ccc(C#N)cc2)CC1 [Example 153, {3-[4-(4-Cyano-phenyl)-piperazine-1-sulfonyl]-4-methyl-phenyl}-acetic acid] | > 100 | > 100 | > 100
10 | Cc1ccc(CC(=O)O)cc1S(=O)(=O)N1CCN(Cc2ccc(F)cc2)CC1 [Example 154, {3-[4-(4-Fluoro-benzyl)-piperazine-1-sulfonyl]-4-methyl-phenyl}-acetic acid] | > 100 | > 100 | 5 to 100
11 | Cc1ccc(CC(=O)O)cc1S(=O)(=O)N1CCN(c2ccc(C(C)(C)C)cc2)CC1 [Example 156, {3-[4-(4-tert-Butyl-phenyl)-piperazine-1-sulfonyl]-4-methyl-phenyl}-acetic acid] | > 100 | 5 to 100 | 5 to 100
12 | Cc1ccc(CC(=O)O)cc1S(=O)(=O)N1CCN(c2ccc(C(F)(F)F)cc2[N+](=O)[O-])CC1 [Example 158, {4-Methyl-3-[4-(2-nitro-4-trifluoromethyl-phenyl)-piperazine-1-sulfonyl]-phenyl}-acetic acid] | > 100 | 5 to 100 | > 100
13 | Cc1ccc(CC(=O)O)cc1S(=O)(=O)N1CCN(CC2CCCCC2)CC1 [Example 161, [3-(4-Cyclohexylmethyl-piperazine-1-sulfonyl)-4-methyl-phenyl]-acetic acid] | > 100 | > 100 | 5 to 100
14 | Cc1ccc(CC(=O)O)cc1S(=O)(=O)N1CCN(c2cnccn2)CC1 [Example 163, [4-Methyl-3-(2,3,5,6-tetrahydro-[1,2]bipyrazinyl-4-sulfonyl)-phenyl]-acetic acid] | > 100 | > 100 | > 100
15 | Cc1ccc(CC(=O)O)cc1S(=O)(=O)N1CCN(C(c2ccccc2)c2ccc(Cl)cc2)CC1 (stereo not drawn) [Example 164] | > 100 | 5 to 100 | 5 to 100
16 | Cc1cc(CC(=O)O)cc(S(=O)(=O)N2CCN(c3ccc(Cl)c(Cl)c3)CC2)c1 [Example 166, {3-[4-(3,4-Dichloro-phenyl)-piperazine-1-sulfonyl]-5-methyl-phenyl}-acetic acid] | 5 to 100 | < 5 | 5 to 100
17 | Cc1cc(CC(=O)O)cc(S(=O)(=O)N2CCN(c3ccc(Cl)cc3)CC2)c1 [Example 167, {3-[4-(4-Chloro-phenyl)-piperazine-1-sulfonyl]-5-methyl-phenyl}-acetic acid] | > 100 | < 5 | 5 to 100
18 | Cc1cccc(N2CCN(S(=O)(=O)c3cc(C)cc(CC(=O)O)c3)CC2C)c1 (stereo not drawn) [Example 168, [3-Methyl-5-(3-methyl-4-m-tolyl-piperazine-1-sulfonyl)-phenyl]-acetic acid] | > 100 | 5 to 100 | 5 to 100
19 | Cc1cc(CC(=O)O)cc(S(=O)(=O)N2CCN(c3ccc(C)c(C)c3)CC2)c1 [Example 169, {3-[4-(3,4-Dimethyl-phenyl)-piperazine-1-sulfonyl]-5-methyl-phenyl}-acetic acid] | > 100 | 5 to 100 | 5 to 100
20 | Cc1cc(CC(=O)O)cc(S(=O)(=O)N2CCN(c3ccc(F)cc3F)CC2)c1 [Example 170] | > 100 | 5 to 100 | > 100
21 | Cc1cc(CC(=O)O)cc(S(=O)(=O)N2CCN(c3cccc(Cl)c3)CC2)c1 [Example 171, {3-[4-(3-Chloro-phenyl)-piperazine-1-sulfonyl]-5-methyl-phenyl}-acetic acid] | > 100 | 5 to 100 | 5 to 100

Results, then the compound that gave them:

Row | EC50 (PPAR alpha) [µM] | EC50 (PPAR delta) [µM] | EC50 (PPAR gamma) [µM] | SMILES
22 | > 100 | < 5 | 5 to 100 | Cc1ccc(CC(=O)O)cc1S(=O)(=O)N1CCN(c2ccc(Cl)cc2)CC1 [Example 147, {3-[4-(4-Chloro-phenyl)-piperazine-1-sulfonyl]-4-methyl-phenyl}-acetic acid]
23 | > 100 | > 100 | > 100 | Cc1ccc(N2CCN(S(=O)(=O)c3cc(CC(=O)O)ccc3C)CC2)c(C)c1 [Example 148, {3-[4-(2,4-Dimethyl-phenyl)-piperazine-1-sulfonyl]-4-methyl-phenyl}-acetic acid]
24 | > 100 | 5 to 100 | 5 to 100 | Cc1ccc(N2CCN(S(=O)(=O)c3cc(CC(=O)O)ccc3C)CC2)cc1C [Example 150, {3-[4-(3,4-Dimethyl-phenyl)-piperazine-1-sulfonyl]-4-methyl-phenyl}-acetic acid]
25 | > 100 | > 100 | 5 to 100 | Cc1ccc(Cl)cc1N1CCN(S(=O)(=O)c2cc(CC(=O)O)ccc2C)CC1 [Example 151, {3-[4-(5-Chloro-2-methyl-phenyl)-piperazine-1-sulfonyl]-4-methyl-phenyl}-acetic acid]
26 | > 100 | > 100 | > 100 | COc1ccc(N2CCN(S(=O)(=O)c3cc(CC(=O)O)ccc3C)CC2)cc1 [Example 155, {3-[4-(4-Methoxy-phenyl)-piperazine-1-sulfonyl]-4-methyl-phenyl}-acetic acid]
27 | > 100 | > 100 | > 100 | COc1ccc(N2CCN(S(=O)(=O)c3cc(CC(=O)O)ccc3C)CC2)cc1OC [Example 157, {3-[4-(3,4-Dimethoxy-phenyl)-piperazine-1-sulfonyl]-4-methyl-phenyl}-acetic acid]
28 | > 100 | > 100 | > 100 | COc1ccccc1N1CCN(S(=O)(=O)c2cc(CC(=O)O)ccc2C)CC1 [Example 159, {3-[4-(2-Methoxy-phenyl)-piperazine-1-sulfonyl]-4-methyl-phenyl}-acetic acid]
29 | > 100 | > 100 | 5 to 100 | Cc1ccc(C)c(N2CCN(S(=O)(=O)c3cc(CC(=O)O)ccc3C)CC2)c1 [Example 160, {3-[4-(2,5-Dimethyl-phenyl)-piperazine-1-sulfonyl]-4-methyl-phenyl}-acetic acid]
30 | > 100 | > 100 | > 100 | Cc1ccc(CC(=O)O)cc1S(=O)(=O)N1CCN(c2ccccc2C#N)CC1 [Example 162, {3-[4-(2-Cyano-phenyl)-piperazine-1-sulfonyl]-4-methyl-phenyl}-acetic acid]
31 | > 100 | < 5 | 5 to 100 | Cc1ccc(CC(=O)O)cc1S(=O)(=O)N1CCN(c2ccc(Cl)c(Cl)c2)CC1 [Example 165, {3-[4-(3,4-Dichloro-phenyl)-piperazine-1-sulfonyl]-4-methyl-phenyl}-acetic acid]
